From patent US20100004194A1, “USE OF ISOMALTULOSE IN FOOD PRODUCTS HAVING A REGENERATIVE EFFECT” (priority 2006, published 2010)
Entries after “also recorded” stand apart in the source; their conditions may differ.

What was measured:
[1] = 3-armed crossover study: respiratory quotient before, during and after physical exertion (bicycle ergometer, Wingate test) with test drinks; format: in vivo, human; conditions: 21 male endurance athletes
Method: The effect of isomaltulose (Palatinose™) on the regulation of the metabolism before, during and after physical exertion was examined and compared with the consumption of maltodextrin or a placebo which has a non-glycaemic effect and is of equivalent sweetness.
The test was carried out as a 3-armed crossover study on 21 subjects. In each subject, the effect of a non-glycaemic drink (placebo=sweetened mineral water) was tested versus a drink containing maltodextrin versus isomaltulose.
The subjects were male endurance athletes with several years' training experience (VO2max>55 ml/kg KG) aged between 23 and 50.
In step ergometry on a bicycle (100 watts at the start; increased by 50 watts/3 min), performance was first determined in the range of from 70-75% of the maximum oxygen uptake. After a sufficient regeneration phase of at least 5 days, the first testing was carried out in randomised order. The testing was carried out in the morning, at the same time in each case, 3-4 hours after a standardised breakfast.
Standardised endurance exertion was first carried out on a bicycle ergometer at 70-75% of the VO2max over 90 min. […] The respiratory quotient (RQ) was determined at the moments −30, −15, 0, 15, 30, 45, 60, 75, 90 min before or during the exertion, immediately after completion of the Wingate test and also 3, 15, 30, 60 and 120 min after end of exertion. […]

[2] = Second meal effect crossover study: respiratory quotient over a test period including two meals and 30-min treadmill exertion; format: in vivo, human; conditions: 20 subjects
Method: The test was a crossover study with 20 subjects. In each subject, the effect of isomaltulose vs. sucrose/glucose syrup was tested.
The test period comprised two meals into which the test substances were integrated: on the one hand a breakfast, which consisted of a drink (250 ml, 10% carbohydrates=25 g of test substance) and biscuits (approx. 140 g, also with 25 g of test substance), and on the other hand a lunch consisting of mini pizzas, an apple and a refreshment drink. The carbohydrate quantity, consumed per portion of shortpastry, of wheat starch of the flour was, at about 50-60 g carbohydrates, at the same level in all biscuit variants. Each test period comprised two postprandial phases.
The respiratory quotient was determined first at rest, then during the subsequent 30-min exertion at moderate intensity (treadmill uphill protocol 4 km/h 5% gradient), at the end of the 30-minute post-exertion phase and up to 4 hours after consumption of the second meal (the lunch).

## OC[C@H]1O[C@H](OC[C@H]2OC(O)(CO)[C@@H](O)[C@@H]2O)[C@H](O)[C@@H](O)[C@@H]1O (stereo partly shown) [isomaltulose]
[1]; 250 ml drinks with 25 g carbohydrate 30 min prior, at start, after 45 min and after Wingate test (2x250 ml), 90 min at 70-75% VO2max
  respiratory quotient (RQ) after the physical exertion versus immediately prior to the exertion (percentage change): substantially equal to or even lower; also recorded: substantially equal
[1]; isomaltulose drink compared with maltodextrin drink or placebo
  RQ throughout the test phase: lower RQ
[2]; breakfast drink with 25 g plus biscuits with 25 g test substance, versus sucrose/glucose syrup breakfast
  RQ after consumption of the breakfast: lower than after the sucrose/glucose syrup breakfast
[2]; up to 4 hours after the lunch, versus sucrose/glucose syrup
  degree by which the RQ was lower after consumption of a second meal (lunch): maintained
